Test results taken from US11767341B2, “Lincosamide antibiotics and uses thereof” (President and Fellows of Harvard College, priority 2017, dated 2023).
≈ marks a conversion by molar mass, not a printed value. Like-named read-outs stand apart in the source and are kept apart here.

How the values were obtained:
Assay in all cases: MIC determination
Assay type in all cases: cell-based
S. aureus ATCC 29213 = details: Staphylococcus aureus, ATCC29213, S. aureus ATCC 29213; read-out: MIC
[1] = system: S. aureus BAA-1556 (USA 300); details: Staphylococcus aureus
[2] = system: S. aureus UNT96, NRS710, MP-618 (USA 100, Erythro >8); details: Staphylococcus aureus
[3] = system: S. aureus UNT-146, MP-620, TP 506 (ermA); details: Staphylococcus aureus
[4] = system: S. aureus UNT-120, MP-619, NRS22 (USA 600, GISA); details: Staphylococcus aureus
S. pneumoniae ATCC 49619 = details: Streptococcus pneumoniae, ATCC49619; S. pneumoniae ATCC 49619; read-out: MIC
[5] = system: S. pneumoniae UNT-038, MP-626, TP 160 (mefA); details: Streptococcus pneumoniae
[6] = system: S. pneumoniae UNT-039, MP-627, TP1517 (mefA); details: Streptococcus pneumoniae
[7] = system: S. pneumoniae TP 1579 (ermB + tet(M, O)); details: Streptococcus pneumoniae
[8] = system: S. pneumoniae TP 1537 (ermB + mefA); details: Streptococcus pneumoniae
S. pyogenes ATCC 19615 = details: Streptococcus pyogenes, ATCC19615; S. pyogenes ATCC 19615; read-out: MIC
[9] = system: S. pyogenes UNT-014, MP-625 MacRes; details: Streptococcus pyogenes; S. pyogenes UNT-014, MP-625 MacRes; read-out: MIC
E. faecalis ATCC 29212 = details: Enterococcus faecalis
E. faecalis UNT-047 VRE = details: Enterococcus faecalis
K. pneumoniae ATCC 10031 = details: Klebsiella pneumoniae, ATCC10031; K. pneumoniae ATCC 10031; read-out: MIC
[10] = system: K. pneumoniae IHMA 658692; KPC-2; details: Klebsiella pneumoniae
E. coli ATCC 25922 = details: Escherichia coli
E. coli GUEST131 (NDM-1) = details: Escherichia coli
P. aeruginosa ATCC 27853 = details: Pseudomonas aeruginosa, ATCC27853
H. influenzae ATCC 49247 = details: Haemophilus influenzae, ATCC49247; H. influenzae ATCC 49247; read-out: MIC
S. aureus BAA 977 iErmA = details: Staphylococcus aureus, BAA977
[11] = system: S. aureus MP-549 msr(a) USA 300; details: Staphylococcus aureus, USA300, S. aureus MP-549 msr(a) USA 300
[12] = system: S. aureus Micromyx USA 300; details: Staphylococcus aureus, USA300; S. aureus Micromyx USA 300; read-out: MIC
S. aureus MMX 3035 cErmA = details: Staphylococcus aureus, MMX3035CERMA
[13] = system: S. pneumoniae MMX 3028 cErmB; details: Streptococcus pneumoniae, MMX3028CERMB; S. pneumoniae MMX 3028 cErmB; read-out: MIC
[14] = system: S. pneumoniae MMX 3031 cMefA; details: Streptococcus pneumoniae, MMX3031CMEFA
[15] = system: S. pyogenes MMX 946 Macrolide-Resistant; details: Streptococcus pyogenes
[16] = system: E. faecalis MMX 847 Macrolide-Resistant; details: Enterococcus faecalis
C. difficile BAA 1805 = details: Clostridioides difficile, BAA1805; C. difficile BAA 1805; read-out: MIC
B. fragilis ATCC 25285 = details: Bacteroides fragilis, ATCC25285; B. fragilis ATCC 25285; read-out: MIC
K. pneumoniae UNT TEM-10 = details: Klebsiella pneumoniae, UNTTEM10
[17] = system: E. coli MMX TolC parent strain; details: Escherichia coli
E. coli MMX 0121 ΔTolC = details: Escherichia coli
[18] = system: P. aeruginosa MMX Mex parent strain; details: Pseudomonas aeruginosa
[19] = system: P. aeruginosa MMX 3476 Δmex; details: Pseudomonas aeruginosa
[20] = S. aureus BAA-1556 (USA 300), read-out: MIC
[21] = S. aureus UNT96, NRS710, MP-618 (USA 100, Erythro >8), read-out: MIC
[22] = S. aureus UNT-146, MP-620, TP 506 (ermA), read-out: MIC
[23] = S. aureus UNT-120, MP-619, NRS22 (USA 600, GISA), read-out: MIC
[24] = S. pneumoniae TP 1537 (ermB + mefA), read-out: MIC
[25] = E. faecalis UNT-047 VRE, read-out: MIC
[26] = K. pneumoniae IHMA 658692, KPC-2, read-out: MIC
[27] = ATCC25922, E. coli ATCC 25922, read-out: MIC
[28] = P. aeruginosa ATCC 27853, read-out: MIC

Compound: CSC1O[C@H]([C@H](NC(=O)[C@H]2NC[C@@H]3CCCCO[C@H]32)[C@H](C)Cl)C(O)[C@@H](O)[C@H]1O (some centres unmarked) [FSA-22091]
- MIC (S. aureus ATCC 29213): 0.125 µg/mL (≈ 0.285 µM)
- MIC [1, 20]: > 32 µg/mL
- MIC [2, 21]: > 32 µg/mL
- MIC [3, 22]: > 32 µg/mL
- MIC [4, 23]: > 32 µg/mL
- MIC (S. pneumoniae ATCC 49619): < 0.0313 µg/mL
- MIC [5]: < 0.0313 µg/mL
- MIC [6]: < 0.0313 µg/mL
- MIC [7]: < 0.0313 µg/mL
- MIC [8, 24]: 32 µg/mL
- MIC (S. pyogenes ATCC 19615): < 0.0313 µg/mL
- MIC [9]: < 0.0313 µg/mL
- MIC (E. faecalis ATCC 29212; ATCC29212, read-out: MIC): > 32 µg/mL
- MIC (E. faecalis UNT-047 VRE; [25]): > 32 µg/mL
- MIC (K. pneumoniae ATCC 10031): 8 µg/mL (≈ 18.2 µM)
- MIC [10, 26]: > 32 µg/mL
- MIC (E. coli ATCC 25922; [27]): 32 µg/mL (≈ 72.9 µM)
- MIC (E. coli GUEST131 (NDM-1)): > 32 µg/mL
- MIC (P. aeruginosa ATCC 27853; [28]): > 32 µg/mL
- MIC (H. influenzae ATCC 49247): 8 µg/mL (≈ 18.2 µM)

Compound: CSC1O[C@H]([C@H](NC(=O)[C@H]2NC[C@@H]3CC=CCO[C@H]32)[C@H](C)Cl)C(O)[C@@H](O)[C@H]1O (some centres unmarked) [FSA-24035]
- MIC (S. aureus ATCC 29213): 0.12 µg/mL (≈ 0.275 µM)
- MIC (S. aureus BAA 977 iErmA): 0.25 µg/mL (≈ 0.572 µM)
- MIC [11]: 0.5 µg/mL (≈ 1.14 µM)
- MIC [12]: 0.12 µg/mL (≈ 0.275 µM)
- MIC (S. aureus MMX 3035 cErmA): > 64 µg/mL
- MIC [1]: > 32 µg/mL
- MIC [2]: > 32 µg/mL
- MIC [3]: > 32 µg/mL
- MIC [4]: > 32 µg/mL
- MIC (S. pneumoniae ATCC 49619): ≤ 0.06 µg/mL
- MIC [13]: 64 µg/mL (≈ 146 µM)
- MIC [14]: ≤ 0.06 µg/mL
- MIC [5]: ≤ 0.0313 µg/mL
- MIC [6]: ≤ 0.0313 µg/mL
- MIC [7]: ≤ 0.0313 µg/mL
- MIC [8]: 32 µg/mL (≈ 73.2 µM)
- MIC (S. pyogenes ATCC 19615): ≤ 0.0313 µg/mL
- MIC [15]: 16 µg/mL (≈ 36.6 µM)
- MIC [9]: ≤ 0.0313 µg/mL
- MIC (E. faecalis ATCC 29212; ATCC29212): 16 µg/mL (≈ 36.6 µM)
- MIC [16]: > 64 µg/mL
- MIC (E. faecalis UNT-047 VRE; VRE): > 32 µg/mL
- MIC (C. difficile BAA 1805): 2 µg/mL (≈ 4.58 µM)
- MIC (B. fragilis ATCC 25285): 8 µg/mL (≈ 18.3 µM)
- MIC (K. pneumoniae ATCC 10031): 64 µg/mL (≈ 146 µM)
- MIC [10]: 32 µg/mL (≈ 73.2 µM)
- MIC (K. pneumoniae UNT TEM-10): 32 µg/mL (≈ 73.2 µM)
- MIC (E. coli ATCC 25922; ATCC25922): > 64 µg/mL
- MIC [17]: > 64 µg/mL
- MIC (E. coli MMX 0121 ΔTolC): 4 µg/mL (≈ 9.15 µM)
- MIC (E. coli GUEST131 (NDM-1)): > 32 µg/mL
- MIC (P. aeruginosa ATCC 27853): > 64 µg/mL
- MIC [18]: > 64 µg/mL
- MIC [19]: 16 µg/mL (≈ 36.6 µM)
- MIC (H. influenzae ATCC 49247): 1 µg/mL (≈ 2.29 µM)

Compound: CSC1O[C@H]([C@H](NC(=O)[C@H]2NC[C@@H]3CC(F)(F)CCO[C@H]32)[C@H](C)Cl)C(O)[C@@H](O)[C@H]1O (some centres unmarked) [FSA-24036]
- MIC (S. aureus ATCC 29213): 0.25 µg/mL (≈ 0.526 µM)
- MIC (S. aureus BAA 977 iErmA): 0.5 µg/mL (≈ 1.05 µM)
- MIC [12]: 0.12 µg/mL (≈ 0.253 µM)
- MIC (S. aureus MMX 3035 cErmA; S. aureus MMX 3035 cErmA, read-out: MIC): > 64 µg/mL
- MIC [1, 20]: > 32 µg/mL
- MIC [2, 21]: > 32 µg/mL
- MIC [3, 22]: > 32 µg/mL
- MIC [4, 23]: > 32 µg/mL
- MIC (S. pneumoniae ATCC 49619): ≤ 0.06 µg/mL
- MIC [13]: 64 µg/mL (≈ 135 µM)
- MIC [14]: ≤ 0.06 µg/mL
- MIC [5]: ≤ 0.0313 µg/mL
- MIC [6]: ≤ 0.0313 µg/mL
- MIC [7]: ≤ 0.0313 µg/mL
- MIC [8, 24]: > 32 µg/mL
- MIC (S. pyogenes ATCC 19615): ≤ 0.0313 µg/mL
- MIC ([15]; S. pyogenes MMX 946 Macrolide-Resistant (MacRes), read-out: MIC): 4 µg/mL (≈ 8.42 µM)
- MIC [9]: ≤ 0.0313 µg/mL
- MIC (E. faecalis ATCC 29212; ATCC29212, read-out: MIC): 4 µg/mL (≈ 8.42 µM)
- MIC ([16]; E. faecalis MMX 847 Macrolide-Resistant (MacRes), read-out: MIC): > 64 µg/mL
- MIC (E. faecalis UNT-047 VRE; [25]): > 32 µg/mL
- MIC (C. difficile BAA 1805): 2 µg/mL (≈ 4.21 µM)
- MIC (B. fragilis ATCC 25285): 4 µg/mL (≈ 8.42 µM)
- MIC (K. pneumoniae ATCC 10031): 16 µg/mL (≈ 33.7 µM)
- MIC [10, 26]: > 32 µg/mL
- MIC (K. pneumoniae UNT TEM-10; K. pneumoniae UNT TEM-10, read-out: MIC): > 32 µg/mL
- MIC (E. coli ATCC 25922; [27]): > 64 µg/mL
- MIC ([17]; E. coli MMX TolC parent strain, read-out: MIC): > 64 µg/mL
- MIC (E. coli MMX 0121 ΔTolC): 8 µg/mL (≈ 16.8 µM)
- MIC (E. coli GUEST131 (NDM-1)): > 32 µg/mL
- MIC (P. aeruginosa ATCC 27853; [28]): > 64 µg/mL
- MIC ([18]; P. aeruginosa MMX Mex parent strain, read-out: MIC): > 64 µg/mL
- MIC [19]: 32 µg/mL (≈ 67.4 µM)
- MIC (H. influenzae ATCC 49247): 4 µg/mL (≈ 8.42 µM)
